The text below walks through data of US12599599B2, “Anti-inflammatory, anti-cancer, and anti-angiogenic compounds, pharmaceutical compositions, and methods of making and using thereof” (MEDICON PHARMACEUTICALS, INC., priority 2017, dated 2026).

One assay concerns HEY-T30 xenografts. Briefly: Synergy with cyclophosphamide, Taxol resistant subcutaneous xenografts. Type of assay: in vivo, nude mice. The conditions noted are these: day 21; compound 5 10 mg/kg/day six days a week ip; cyclophosphamide 10 mg/kg six days a week orally; or both.
The subject of the next assay is SKOV-3 ovarian cancer. Nature of the assay: 24 hr growth inhibition of cell line. The following applies: Homo sapiens, SK-OV-3, 24 h. The class given is cell-based. As to the method:
(§1) The therapeutic efficacy of compounds 2, 5, and 6 was assessed in human and murine cell lines of varied tissue origin, and their 24 hr 50% inhibitory concentration was determined by following standard methodologies. Typical results are shown in the Table 5, indicating a broad anticancer effect.
Ovarian cancer cells were studied in greater detail using the following ovarian cancer cell lines: SKOV-3, OVCAR3, A2780 (and two cell lines derived from it, A2870cis that is resistant to cisplatin, and A2870ADR that is resistant to doxorubicin (Adriamycin)), and HEY (sensitive to paclitaxel (Taxol), and its derivative HEY-T30 that is Taxol-resistant). […]

The test system of another assay is RAW264 murine macrophage. Briefly: 24 hr growth inhibition of cell line. Type of assay: cell-based. The following applies: Mus musculus, RAW264.7, 24 h. As to the method: as §1
A further assay deals with AGS gastric cancer. Nature of the assay: 24 hr growth inhibition of cell line. The class given is cell-based. The conditions noted are these: Homo sapiens. As to the method: as §1
A further assay concerns HCT116 colon cancer. Briefly: 24 hr growth inhibition of cell line. Type of assay: cell-based. The conditions noted are these: Homo sapiens, HCT-116, 24 h. As to the method: as §1
A further assay relates to A549 lung cancer. Briefly: 24 hr growth inhibition of cell line. The class given is cell-based. The following applies: Homo sapiens. As to the method: as §1
Assay [1] concerns chicken embryo chorioallantoic membrane. Nature of the assay: Chicken embryo chorioallantoic membrane assay. The class given is in vivo.
For another assay, the system named is A2780cis xenografts. Briefly: Subcutaneous xenografts in nude mice, cisplatin resistant. Type of assay: in vivo. The conditions noted are these: compound 5 15 mg/kg/day six days a week ip; cis-platinum 5.5 mg/kg one time a week ip. As to the method: (§2) Compound 6 was also efficacious against chemotherapy-resistant ovarian cancer. […] The effect of compound 6 in cisplatin resistant (A2780cis) and doxorubicin (Adriamycin) resistant (A2780ADR) tumors was studied. Briefly, each of these cell lines was subcutaneously inoculated into athymic nude mice and when the tumor size reached 100-200 mm^3, compound 6 150 mg/kg/day or its vehicle were given i.p. After 11 days of treatment, for the cisplatin-resistant tumors the tumor volume of the vehicle group was 2388±127 mm^3 and for compound 6 group 1032±108 mm^3 (mean±SEM; P<0.02); while for the doxorubicin-resistant tumors these values were: vehicle group=1369±337 mm^3 and compound 6 group=396±182 mm^3 (P<0.02).
To determine whether compound 5 is efficacious against chemotherapy-resistant ovarian cancer, three pairs of sensitive and resistant human ovarian cancer cell lines were grown as subcutaneous xenografts in nude mice and treated as summarized in FIG. 10. These cell lines were: A2780, sensitive to both cis-platinum and Adriamycin (doxorubicin); A2780cis, resistant to cis-platinum; A2780ADR, resistant to Adriamycin: HEY, sensitive to Taxol; HEY-T30, resistant to Taxol. The treatments administered were: vehicle control; compound 5, 15 mg/kg/day six days a week, ip; cis-platinum 5.5 mg/kg, one time a week ip; Adriamycin 3 mg/kg twice a week ip; and Taxol 20 mg/kg twice a week ip.

For assay [2], the system named is SKOV-3 human ovarian cancer cell xenografts. Nature of the assay: Intraperitoneal luciferase-expressing SKOV-3 tumors in nude mice. The class given is in vivo. The conditions noted are these: 15 mg/kg ip once a day, six days a week. As to the method:
The ability of compound 5 to inhibit the growth of human ovarian cancer cell xenografts in nude mice was determined. A mouse model that recapitulates the features of peritoneal spread was used, the peritoneal spread being the clinically most relevant presentation of ovarian cancer. In this model, luciferase-expressing ovarian cancer cells are injected intraperitoneally (ip) into nude mice. Multiple tumors grow in the peritoneal cavity and their growth is monitored periodically using the IVIS Lumina II imaging system following the intraperitoneal administration of luciferin, the substrate of luciferase. The luciferase gene was transfected into SKOV-3 cells, and 2×10^6 cells were intraperitoneally injected into mice. Two weeks later, when tumors had grown, mice treatment was started by intraperitoneally injecting compound 5, 15 mg/kg or vehicle (corn oil), once a day, six days a week (n=10 mice/group).
When the tumor volume of the compound 5 treated mice at the end of the study is compared to that of the day when treatment started (baseline), compound 5 caused 53% tumor regression, with 3 out of 10 mice having barely detectable tumors by imaging and no tumors visible at necropsy.
as §2

Assay [3] has as its system SKOV-3 human ovarian cancer cells. Nature of the assay: Acridine orange staining by flow cytometry (autophagy). The following applies: after treatment; 4% before. The class given is cell-based. The protocol:
FIGS. 12A-12C and FIGS. 13A-13C illustrate key findings related to the mechanism of action of compound 5 against ovarian cancer. The studies shown here were performed in SKOV-3 human ovarian cancer cells. FIG. 12A: Left: Compound 5 increases the percentage of cells with acridine orange staining determined by flow cytometry (4% 4→38% after treatment with compound 5) and indicating the induction of autophagy. Right: Electron micrographs show morphological features of cells undergoing autophagy. Yellow arrowheads: vacuoles; white arrowheads: autophagosomes. […] N: nucleus; ER: endoplasmic reticulum with visible ribosomes. The left micrograph shown normal ER (circled) in a vehicle-treated cell. […] The latter finding is diagnostic of ER stress. Magnification: 6,800×. FIG. 12C: Compound 5 suppresses STAT3, mTOR and JNK activation by phosphorylation, as well as the levels of COT.

Assay [4] relates to MIA PaCa2 human pancreatic cancer cells. Briefly: In vitro synergy with tamoxifen. Type of assay: cell-based. The conditions noted are these: tamoxifen prior to or concurrently with compound 5. The source says: Additionally, synergy has been documented between compounds 5 and 6 individually and several chemotherapeutic and other agents, including but not limited to various camptothecins (e.g., camptothecin 11), resveratrol, gemcitabine, docetaxel, curcumin, progesterone, and methotrexate. Such synergy concerned the ability of these combinations to markedly suppress the growth of various human cancer cell lines originating in the pancreas, lung and other tissues. Furthermore, extremely efficacious was the combination of compounds 5, 6 and tamoxifen in completely suppressing the growth of K-ras mutant human pancreatic cancer cell lines.

For `CCN(CC)CCCCNC(=O)c1ccccc1SC/C=C(\C)CC/C=C(\C)CCC=C(C)C` [Compound 5], in the assay with HEY-T30 xenografts, the “inhibition of tumor growth compared to control” value is given as 26%. Moreover, the IC50 with SKOV-3 ovarian cancer worked out at 9 µM; in the assay with RAW264 murine macrophage, 5 µM; with AGS gastric cancer, 14 µM; with HCT116 colon cancer, 10 µM; with A549 lung cancer, 19 µM. In addition, the “new vessels after treatment” value in [1] (control 58±4.9 (compound 5), 42.6±8.2 (compound 6)) is reported as 46±2.1. For the same compound, the “reduction of formation of new vessels” value in assay [1] (in vivo) came to 21%. In addition, the “growth of platinum-resistant xenografts” value in the assay on A2780cis xenografts is “as efficacious as in the platinum sensitive xenografts”. In addition, the “reduction of tumor volume compared to control” value in assay [2] (day 24) is reported as 153%. Besides, the “mice having barely detectable tumors by imaging and no tumors visible at necropsy” value in assay [2] (end of study) is 3 out of 10. In addition, in assay [2] (end of study), the “tumor regression vs baseline (day treatment started)” value is 53%. Further, the “percentage of cells with acridine orange staining” value in assay [3] came out at 38%. Besides, the “synergy with tamoxifen on growth of MIA PaCa2 cells” value in assay [4] is recorded as “synergizes”.
